Reference: article PMC7725824, “Fused isoselenazolium salts suppress breast cancer cell growth by dramatic increase in pyruvate-dependent mitochondrial ROS production” (Scientific Reports, 2020)

How the values were obtained:
4T1 = experiment: Cytotoxicity assay (MTT), 4T1; type: cell-based, mouse; details: Mus musculus, 4T1; breast cancer cell line; MTT, 48 h; mean ± S.D., 3 experiments; read-out: Cytotoxicity, IC50, 4T1
Method: (§1) MCF-7 (human breast adenocarcinoma, estrogen-positive) and 4T1 (mouse carcinoma), as breast cancer cell lines, and H9C2 (rat cardiomyoblasts), NIH 3T3 (mouse fibroblasts), HEKa (primary human epidermal keratinocytes), MDCK (Madin-Darby Canine Kidney) cells, and A7r5 (rat vascular smooth muscle cells), as normal cell lines, were obtained from the American Type Culture Collection [ATCC] collection for use in the current study. All cell lines were cultured in Dulbecco's modified Eagle's medium (DMEM) containing 10% fetal bovine serum (FBS) and 4 mM L-glutamine at 37 °C and 5% CO2.
(§2) Cell viability was assessed by the addition of 3-(4,5-dimethylthiazol-2-yl)-2,5-diphenyltetrazolinium bromide (MTT). Briefly, cells were seeded (2–6 × 10^4 cells/ml) in 96-well plates and allowed to attach for 24 h. Solutions of test compounds were prepared and serially diluted to obtain the appropriate concentrations. The cells were treated with the test compounds at different concentrations (0.032–100 µM) and incubated for 48 h at 37 °C and 5% CO2. Then, the culture medium was removed, and medium containing 0.2 mg/ml MTT was added. After 3 h (37 °C, 5% CO2), the MTT-containing medium was removed, and 200 μl of dimethyl sulfoxide (DMSO) was immediately added to each sample. The absorbance was assessed at 540 nm using a Tecan multiplate reader Infinite 1000 (Austria). The half-maximal inhibitory concentration (IC50) of each compound was calculated using Graph Pad Prism 3.0.

[1] = Cytotoxicity assay (MTT), 3T3; type: cell-based, mouse; details: mouse, NIH 3T3 cells (fibroblasts), normal cell line, mean ± S.D., 3 experiments
Method: as §1, §2

[2] = Cytotoxicity assay (MTT), A7r5; type: cell-based, rat; details: rat, A7r5 cells (vascular smooth muscle cells), normal cell line, mean ± S.D., 3 experiments
Method: as §1, §2

permeabilized 4T1 cells = experiment: High-resolution fluorespirometry (respiration and H2O2 flux); type: cell-based, mouse
Method: High-resolution fluorespirometry was performed using an Oxygraph-2 k system (OROBOROS INSTRUMENTS, Austria). All experiments were performed at 37 °C in MiR05 medium (110 mM sucrose, 60 mM K-lactobionate, 0.5 mM EGTA, 3 mM MgCl2, 20 mM taurine, 10 mM KH2PO4, 20 mM HEPES, pH 7.1 at 30 °C, and 0.1% BSA essentially fatty acid free). The medium was reoxygenated when the oxygen concentration dropped to 80 µM. H2O2 flux was simultaneously measured with respirometry in the O2k-Fluorometer using the H2O2-sensitive probe Ampliflu Red (AmR) as described. The H2O2/O flux ratio [%] was calculated as the H2O2 flux/(0.5 O2 flux).
In permeabilized 4T1 cells, pyruvate + malate (5 and 2 mM) or glutamate + malate (10 and 2 mM) were used to determine complex I (CI)-linked LEAK (L) respiration. ADP was added to a concentration of 5 mM to determine the oxidative phosphorylation-dependent respiration (OXPHOS state). Succinate (10 mM, complex II (CII) substrate) was then added to reconstitute convergent CI&II-linked respiration. Rotenone (0.5 µM, an inhibitor of complex I) and antimycin A (2.5 µM, an inhibitor of complex III) were added to determine the CII-linked OXPHOS capacity and residual oxygen consumption (ROX), respectively. Compound 6 was added to permeabilized cells after the addition of the respective substrates in the OXPHOS state (titration experiment) or in the LEAK state. In addition, compounds 3, 6 and 7 were tested at 1 µM in the OXPHOS coupling protocol in the LEAK state. The OXPHOS coupling efficiency was calculated as: 1-Resp.rateLEAKstate/Resp.rateOXPHOSstate
The substrate-dependent flux control factor was calculated as: 1-Resp.ratebeforeadditionofrespectivesubstrate/Resp.rateafteradditionofrespectivesubstrate

DOPC liposomes = experiment: Isothermal titration calorimetry with DOPC liposomes; type: binding; details: 25 °C, 200 µM total lipid
Method: (§3) The obtained large multilamellar liposomes were sonicated in a bath-type sonicator (Cole Parmer Ultrasonic Cleaner 8891CPX (USA)) at room temperature for 30 min and then extruded (LiposoFast-Basic, Avestin) through a 100 nm polycarbonate filter 21 times. The quality of the resulting small unilamellar vesicles was determined by dynamic light scattering (DLS) (Zetasizer Nano ZSP, Malvern Panalytical Ltd., UK).
(§4) The experiments were carried out using an isothermal titration calorimeter (MicroCal iTC200, Malvern Panalytical Ltd., UK). To carry out the titration, the injection syringe was filled with a solution of compound 6 (100 µM), and the reaction cell was filled with liposome dispersion (200 µM of total lipid). The experiments were performed at 25 and 37 °C with a stirring speed of 750 rpm. […] The data consisted of a series of heat flows as a function of time, which were collected automatically and analyzed by Origin 7 software (OriginLab Corporation, Northampton, USA, www.originlab.com, 2002). The changes in enthalpy (ΔH) due to the interactions between 6 and the liposome dispersions were recorded, and then stoichiometry (N), the association constant (KA), the dissociation constant (KD), entropy (ΔS) and the Gibbs free energy (ΔG) were calculated. The obtained sigmoidal titration curves were evaluated assuming independent saturable binding sites in the outer vesicle interface. […]

[3] = system: CL/DOPC (1:3) vesicles (cardiolipin); experiment: Isothermal titration calorimetry with CL/DOPC liposomes; type: binding; details: 25 °C
Method: as §3, §4

[4] = 1 µM, pyruvate-dependent OXPHOS state
[5] = titration, pyruvate + malate and glutamate + malate, OXPHOS

Compound `OC1(c2[se][n+]3ccsc3c2Br)CCCCC1` [Compound 6, 3-bromo-2-(1-hydroxycyclohexyl)[1,2]selenazolo[2,3-b]thiazolium chloride] has an IC50 (4T1) of 1700 ± 200 nM, an IC50 at 48 h [1] of 7400 ± 800 nM and an IC50 at 48 h [2] of 1970 ± 270 nM. The “H2O2 production and H2O2/O ratio in the CI&II-linked OXPHOS state” value (permeabilized 4T1 cells; 1 µM) was “significant increases”, the OXPHOS coupling efficiency (permeabilized 4T1 cells; 1 µM) was “significant decrease” and the “respiration rate in the OXPHOS state with pyruvate and malate” value (permeabilized 4T1 cells; 1 µM) was “decreased”. For the same compound, the “increase in H2O2/O ratio” value (permeabilized 4T1 cells; [4]) was 2.8 fold, the “increase in H2O2 production” value (permeabilized 4T1 cells; [4]) was 2.3 fold and the “mitochondrial function in the CII-linked OXPHOS state” value (permeabilized 4T1 cells; titration) was “no significant changes”. For the same compound, the “H2O2 production with complex I (NADH-linked) substrates” value (permeabilized 4T1 cells; [5]) was “increased”, the “mitochondrial respiration rate with complex I (NADH-linked) substrates” value (permeabilized 4T1 cells; [5]) was “inhibited” and the “ITC binding to DOPC liposomes” value (DOPC liposomes) was “no signs of binding”. The “ITC isoselenazolium cation–CL interaction” value [3] was “decrease in enthalpy”.
